Results reported in PMC8713996, “An anti-tuberculosis compound screen using a zebrafish infection model identifies an aspartyl-tRNA synthetase inhibitor” (Disease Models & Mechanisms, 2021).
Values after ≈ are worked out from the molar mass of the structure shown.

Legend:
[1] = test system: M. marinum-tdTomato yolk-infected zebrafish embryos; settings: in vivo
[2] = test system: Mtb-infected THP-1 macrophages; experiment: microbe, parasite or virus in culture; type: cell-based, Mycobacterium tuberculosis; settings: for MIC50 / IC50: Mycobacterium tuberculosis, read-out: MIC50 Mtb ex vivo; for IC50: THP-1, 96 h
M. tuberculosis H37Rv = experiment: microbe, parasite or virus in culture; type: cell-based; settings: Mycobacterium tuberculosis, read-out: MIC90 Mtb in vitro; for IC90: 144 h
M. marinum M^USA = experiment: microbe, parasite or virus in culture; type: cell-based; settings: Mycobacterium marinum, read-out: MIC90 Mmar in vitro

SMILES	Bacterial load (integrated red fluorescence) in infected embryos vs DMSO [1]	MIC50 [2]	MIC90 (M. tuberculosis H37Rv)	further results
CC(C)=CCC/C(C)=C/CNCCNC1C2CC3CC(C2)CC1C3 (stereo not drawn) [SQ109]	significant reduction of the bacterial signal	–	–	–
CC12CC3CC(C)(C1)CC(C(=O)Nc1nc4ccccc4s1)(C3)C2 [TBA8]	–	6.9 ± 8.7 µM (≈ 2.35 µg/mL)	15.8 ± 7.5 µM (≈ 5.38 µg/mL)	–
COc1ccc(Cc2nn3c(-c4ccccc4)nnc3s2)cc1 [TBA29]	–	6.1 ± 4 µM (≈ 1.97 µg/mL)	3.6 ± 0.9 µM (≈ 1.16 µg/mL)	–
CC(C)C(=O)Nc1ccc(C(=O)Oc2ccccc2)c(O)c1 [TBA32]	–	9.6 ± 16.6 µM (≈ 2.87 µg/mL)	2 ± 0.5 µM (≈ 0.599 µg/mL)	–
O=C(Nc1ccc(Cl)cc1)NC1CC2CCC1C2 (stereo not drawn) [TBA37]	–	5.5 ± 3.6 µM (≈ 1.46 µg/mL)	13.6 ± 4.3 µM (≈ 3.6 µg/mL)	–
Cc1ccc(-c2nnc3sc(Cc4ccccc4)nn23)cc1 [TBA38]	–	5.6 ± 3.4 µM (≈ 1.72 µg/mL)	9.9 ± 1.9 µM (≈ 3.03 µg/mL)	–
Cc1ccc(NC(=O)C23CC4CC(CC2C4)C3)cc1 [TBA52]	–	–	–	IC50 [2]: 4.2 ± 6 µM; IC90 (M. tuberculosis H37Rv): 9.6 ± 5.3 µM
COc1cccc(OCCNC(=O)c2cc([N+](=O)[O-])cc([N+](=O)[O-])c2)c1 [TBA57]	–	1.6 ± 0.7 µM (≈ 0.578 µg/mL)	1.7 ± 3.1 µM (≈ 0.614 µg/mL)	–
O=C(OCC(=O)c1c[nH]c2ccccc12)c1ccc([N+](=O)[O-])s1 [TBA61]	–	> 30 µM	2.2 ± 0.2 µM (≈ 0.727 µg/mL)	Intracellular activity (bacterial viability, macrophage protection) [2]: did not show activity
COc1ccc(CNC(=O)c2c(C)nc3ccccn23)cc1 [TBA117]	–	0.4 ± 0.1 µM (≈ 0.118 µg/mL)	4 ± 1.4 µM (≈ 1.18 µg/mL)	–
Cc1nc2ccccn2c1C(=O)NCc1ccc2c(c1)OCO2 [TBA120]	–	0.5 ± 0.2 µM (≈ 0.155 µg/mL)	5.9 ± 2.6 µM (≈ 1.83 µg/mL)	–
CC(C)(C)c1ccc(Cn2cnc([N+](=O)[O-])n2)cc1 [TBA139]	–	–	–	IC50 [2]: 4.6 ± 7.1 µM; IC90 (M. tuberculosis H37Rv): 11.8 ± 12.4 µM
O=C(Nc1ccc(F)cc1)NC1CCCCCCC1 [TBA145]	–	8 ± 14.2 µM (≈ 2.11 µg/mL)	19 ± 5.7 µM (≈ 5.02 µg/mL)	–
O=c1c2ccccc2oc2nc3n(c(=O)c12)CCCS3 [TBA161-A, 3,4-dihydro-chromeno[2′,3′:4,5]pyrimido[2,1-b][1,3]thiazine-6,7-dione]	–	1.1 ± 0.9 µM (≈ 0.315 µg/mL)	3.8 ± 3.1 µM (≈ 1.09 µg/mL)	MIC90 (M. marinum M^USA): 2.8 ± 1.7 µM (≈ 0.802 µg/mL)
CCc1cccc2c(C(=O)COC(=O)c3ccc([N+](=O)[O-])s3)c[nH]c12 [TBA172]	–	> 30 µM	2.4 ± 0.4 µM (≈ 0.86 µg/mL)	Intracellular activity (bacterial viability, macrophage protection) [2]: did not show activity
COc1nc2ccc(Br)cc2cc1[C@@H](c1ccccc1)[C@@](O)(CCN(C)C)c1cccc2ccccc12 [bedaquiline]	significant reduction of the bacterial signal	–	–	–
C[C@]1(COc2ccc(N3CCC(Oc4ccc(OC(F)(F)F)cc4)CC3)cc2)Cn2cc([N+](=O)[O-])nc2O1 [delamanid]	significant reduction of the bacterial signal	–	–	–
CCc1cc(C(N)=S)ccn1 [ethionamide]	significant reduction of the bacterial signal	–	–	–
O=c1nc(N2CCN(CC3CCCCC3)CC2)sc2c([N+](=O)[O-])cc(C(F)(F)F)cc12 [macozinone]	significant reduction of the bacterial signal	–	–	–
O=[N+]([O-])c1cn2c(n1)OC[C@@H](OCc1ccc(OC(F)(F)F)cc1)C2 [pretonamid]	significant reduction of the bacterial signal	–	–	–
CO[C@H]1/C=C/O[C@@]2(C)Oc3c(C)c(O)c4c(O)c(c(/C=N/N5CCN(C)CC5)c(O)c4c3C2=O)NC(=O)/C(C)=C\C=C\[C@H](C)[C@H](O)[C@@H](C)[C@@H](O)[C@@H](C)[C@H](OC(C)=O)[C@@H]1C [rifampicin]	significant reduction of the bacterial signal	–	–	–
CC(=O)NC[C@H]1CN(c2ccc(N3CCSCC3)c(F)c2)C(=O)O1 [sutezolid]	significant reduction of the bacterial signal	–	–	–
